Experimental data reported in patent US9096560B2, “5-heterocyclylalkyl-3-hydroxy-2-phenylcyclopent-2-enones as herbicides” (Syngenta Limited, priority 2008, dated 2015).

Legend:
Type in all cases: in vivo
[1] = tested on: Alopecurus myosuroides (ALOMY); assay: Example B post-emergence herbicidal test, ALOMY; conditions: Alopecurus myosuroides, 312 h, rate 250 g/ha, evaluated after 13 days, scale 0-100, read-out: Post-emergence activity ALOMY (100=total damage to plant; 0=no damage to plant)
Protocol: (§1) Seeds of a variety of test species were sown in standard soil in pots. After cultivation for one day (pre-emergence) or after 8 days cultivation (post-emergence) under controlled conditions in a glasshouse (at 24/16° C., day/night; 14 hours light; 65% humidity), the plants were sprayed with an aqueous spray solution derived from the formulation of the technical active ingredient in acetone/water (50:50) solution containing 0.5% Tween 20 (polyoxyethelyene sorbitan monolaurate, CAS RN 9005-64-5). The test plants were then grown in a glasshouse under controlled conditions in a glasshouse (at 24/16° C., day/night; 14 hours light; 65% humidity) and watered twice daily. After 13 days for pre and post-emergence, the test was evaluated (100=total damage to plant; 0=no damage to plant). Lolium perenne (LOLPE), Alopecurus myosuroides (ALOMY), Echinochloa crus-galli (ECHCG), Avena fatua (AVEFA) Post-Emergence Activity

Lolium perenne (LOLPE) [2] = assay: Example B pre-emergence herbicidal test, LOLPE; conditions: Lolium perenne, 312 h, rate 250 g/ha, evaluated after 13 days, 100=total damage to plant, 0=no damage to plant
Protocol: as §1, with “Pre-Emergence” for “Post-Emergence”

Avena fatua (AVEFA) [3] = assay: Example B post-emergence herbicidal test, AVEFA; conditions: Avena fatua, 312 h, rate 250 g/ha, evaluated after 13 days, scale 0-100, read-out: Post-emergence activity AVEFA (100=total damage to plant; 0=no damage to plant)
Protocol: as §1

[4] = tested on: Echinochloa crus-galli (ECHCG); assay: Example B post-emergence herbicidal test, ECHCG; conditions: Echinochloa crus-galli, 312 h, rate 250 g/ha, evaluated after 13 days, scale 0-100, read-out: Post-emergence activity ECHCG (100=total damage to plant; 0=no damage to plant)
Protocol: as §1

[5] = tested on: Alopecurus myosuroides (ALOMY); assay: Example B pre-emergence herbicidal test, ALOMY; conditions: Alopecurus myosuroides, 312 h, rate 250 g/ha, evaluated after 13 days, 100=total damage to plant, 0=no damage to plant
Protocol: as §1, with “Pre-Emergence” for “Post-Emergence”

Avena fatua (AVEFA) [6] = assay: Example B pre-emergence herbicidal test, AVEFA; conditions: Avena fatua, 312 h, rate 250 g/ha, evaluated after 13 days, 100=total damage to plant, 0=no damage to plant
Protocol: as §1, with “Pre-Emergence” for “Post-Emergence”

Lolium perenne (LOLPE) [7] = assay: Example B post-emergence herbicidal test, LOLPE; conditions: Lolium perenne, 312 h, rate 250 g/ha, evaluated after 13 days, scale 0-100, read-out: Post-emergence activity LOLPE (100=total damage to plant; 0=no damage to plant)
Protocol: as §1

[8] = tested on: Echinochloa crus-galli (ECHCG); assay: Example B pre-emergence herbicidal test, ECHCG; conditions: Echinochloa crus-galli, 312 h, rate 250 g/ha, evaluated after 13 days, 100=total damage to plant, 0=no damage to plant
Protocol: as §1, with “Pre-Emergence” for “Post-Emergence”

| SMILES | pest or weed control at 250 g/ha [1] [%] | pest or weed control at 250 g/ha (Lolium perenne (LOLPE) [2]) [%] | pest or weed control at 250 g/ha (Avena fatua (AVEFA) [3]) [%] | pest or weed control at 250 g/ha [4] [%] | pest or weed control at 250 g/ha [5] [%] | pest or weed control at 250 g/ha (Avena fatua (AVEFA) [6]) [%] | pest or weed control at 250 g/ha (Lolium perenne (LOLPE) [7]) [%] | pest or weed control at 250 g/ha [8] [%] |
| --- | --- | --- | --- | --- | --- | --- | --- | --- |
| CON1CCC(CC2CC(OC(C)=O)=C(c3c(C)cc(C)cc3C)C2=O)CC1 (stereo not drawn) [Compound P50] | 100 | 100 | 100 | 100 | 100 | 100 | 100 | 100 |
| CON1CCC(CC2CC(OC(=O)C(C)(C)C)=C(c3c(C)cc(C)cc3C)C2=O)CC1 (stereo not drawn) [Compound P51] | 100 | 100 | 100 | 100 | 100 | 100 | 100 | 100 |
| Cc1cc(C)c(C2=C(OC(=O)OC(C)(C)C)C/C(=C\C3CCN(C(=O)OC(C)(C)C)CC3)C2=O)c(C)c1 [Compound P53] | 60 | 100 | 40 | 70 | 60 | 70 | 20 | 90 |
| Cc1cc(C)c(C2=C(OC(=O)OC(C)(C)C)CC(CC3CCN(C(=O)OC(C)(C)C)CC3)C2=O)c(C)c1 (stereo not drawn) [Compound P54] | 70 | 100 | 50 | 80 | 80 | 70 | 40 | 100 |
| CON1CCC(CC2CC(OC(=O)c3ccccc3)=C(c3c(C)cc(C)cc3C)C2=O)CC1 (stereo not drawn) [Compound P55] | 90 | 100 | 100 | 100 | 100 | 90 | 100 | 100 |
| Cc1cc(C)c(C2=C(OC(=O)C3CC3)CC(CC3CCN(C(=O)C4CC4)C3)C2=O)c(C)c1 (stereo not drawn) [Compound P57] | 80 | 60 | 80 | 70 | 50 | 70 | 60 | 30 |
| Cc1cc(C)c(C2=C(OC(=O)C(C)C)CC(CC3CCN(C(=O)C(C)C)C3)C2=O)c(C)c1 (stereo not drawn) [Compound P58] | 90 | 80 | 90 | 70 | 70 | 70 | 90 | 80 |
| Cc1cc(C)c(C2=C(OC(=O)C(C)(C)C)CC(CC3CCN(C(=O)C(C)(C)C)C3)C2=O)c(C)c1 (stereo not drawn) [Compound P59] | 90 | 80 | 80 | 70 | 50 | 30 | 80 | 70 |
| Cc1cc(C)c(C2=C(OC(=O)C(C)(C)CCl)CC(CC3CCN(C(=O)C(C)(C)CCl)C3)C2=O)c(C)c1 (stereo not drawn) [Compound P60] | 80 | 80 | 80 | 40 | 30 | 0 | 70 | 50 |
